According to PubChem BioAssay AID743031 (The Scripps Research Institute Molecular Screening Center, 2013):

Columns and labels:
Mouse Plasma = assay: mouse brain penetration after oral dosing – LC-MS/MS, powder samples, in vivo study for V1a-R antagonist project, late-stage follow-up (AID 743031); conditions: C57Bl6 mouse, 10 mg/kg PO, LC-MS/MS at 60 min, 60 min after 10 mg/kg PO
Mouse Brain = assay: as above; conditions: C57Bl6 mouse, 10 mg/kg PO, LC-MS/MS at 60 min, 60 min after 10 mg/kg PO
[1] = brain to plasma ratio, stronger effect = higher value

O=C(C1CCN(c2ccc(Cl)cn2)CC1)N(CC1CC1)c1ccc(Cl)cc1
compound concentration (Mouse Plasma): 2.56 µM | brain/plasma ratio (Mouse Plasma; [1]): 1.28 | compound concentration (Mouse Brain): 3.27 µM | brain/plasma ratio (Mouse Brain; [1]): 1.28
